Assays:
Experiment in all cases: relative viability (nuclei count vs DMSO), 5 days (fraction); higher = more cells survive
Alisertib + Palbociclib = compound: COc1cc(Nc2ncc3c(n2)-c2ccc(Cl)cc2C(c2c(F)cccc2OC)=NC3)ccc1C(=O)O [Alisertib] + CC(=O)c1c(C)c2cnc(Nc3ccc(N4CCNCC4)cn3)nc2n(C2CCCC2)c1=O [Palbociclib] (partner 0.5 µM)
Outline: (§1)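 Values are medians from duplicate plates. Each reflects relative viability, defined as the nuclei count of treated wells over that of vehicle wells. Lung cancer cell lines in 1536-well plates were pin-tool dosed one day after seeding with one drug alone or with a fixed anchor-drug dose plus five library-drug doses (not always all listed) in √10 steps, then fixed, stained and imaged at 4× after 5 days.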

Alisertib + Olaparib = compound: COc1cc(Nc2ncc3c(n2)-c2ccc(Cl)cc2C(c2c(F)cccc2OC)=NC3)ccc1C(=O)O [Alisertib] + O=C(c1cc(Cc2n[nH]c(=O)c3ccccc23)ccc1F)N1CCN(C(=O)C2CC2)CC1 [Olaparib] (partner 8 µM)
Outline: as §1

Alisertib + Alpelisib = compound: COc1cc(Nc2ncc3c(n2)-c2ccc(Cl)cc2C(c2c(F)cccc2OC)=NC3)ccc1C(=O)O [Alisertib] + Cc1nc(NC(=O)N2CCC[C@H]2C(N)=O)sc1-c1ccnc(C(C)(C)C(F)(F)F)c1 [Alpelisib] (partner 2 µM)
Outline: as §1

Alisertib + Pemetrexed = compound: COc1cc(Nc2ncc3c(n2)-c2ccc(Cl)cc2C(c2c(F)cccc2OC)=NC3)ccc1C(=O)O [Alisertib] + Nc1nc2[nH]cc(CCc3ccc(C(=O)N[C@@H](CCC(=O)O)C(=O)O)cc3)c2c(=O)[nH]1 [Pemetrexed] (partner 0.2 µM)
Outline: as §1

| Cell Line | relative viability (Alisertib + Palbociclib; first compound 0.005 µM) | relative viability (Alisertib + Palbociclib; first compound 0.01581 µM) | relative viability (Alisertib + Palbociclib; first compound 0.05 µM) | relative viability (Alisertib + Palbociclib; first compound 0.1581 µM) | relative viability (Alisertib + Palbociclib; first compound 0.5 µM) | relative viability (Alisertib + Olaparib; first compound 0.005 µM) | relative viability (Alisertib + Olaparib; first compound 0.01581 µM) | relative viability (Alisertib + Olaparib; first compound 0.05 µM) | relative viability (Alisertib + Olaparib; first compound 0.1581 µM) | relative viability (Alisertib + Olaparib; first compound 0.5 µM) | relative viability (Alisertib + Alpelisib; first compound 0.005 µM) | relative viability (Alisertib + Alpelisib; first compound 0.01581 µM) | relative viability (Alisertib + Alpelisib; first compound 0.05 µM) | relative viability (Alisertib + Alpelisib; first compound 0.1581 µM) | relative viability (Alisertib + Alpelisib; first compound 0.5 µM) | relative viability (Alisertib + Pemetrexed; first compound 0.005 µM) | relative viability (Alisertib + Pemetrexed; first compound 0.01581 µM) | relative viability (Alisertib + Pemetrexed; first compound 0.05 µM) | relative viability (Alisertib + Pemetrexed; first compound 0.1581 µM) | relative viability (Alisertib + Pemetrexed; first compound 0.5 µM) |
| --- | --- | --- | --- | --- | --- | --- | --- | --- | --- | --- | --- | --- | --- | --- | --- | --- | --- | --- | --- | --- |
| HCC-78 | 0.5 | 0.458 | 0.357 | 0.407 | 0.307 | 0.772 | 0.503 | 0.23 | 0.292 | 0.218 | 0.319 | 0.254 | 0.162 | 0.133 | 0.142 | 0.889 | 0.909 | 0.895 | 0.959 | 0.926 |
| HCC-366 | 0.361 | 0.322 | 0.0243 | 0.0284 | 0.039 | 0.32 | 0.173 | 0.0172 | 0.0252 | 0.0457 | 0.337 | 0.46 | 0.0611 | 0.0117 | 0.0152 | 0.169 | 0.131 | 0.0451 | 0.0421 | 0.0514 |
| HCC-827 | 0.459 | 0.537 | 0.379 | 0.27 | 0.207 | 0.639 | 0.654 | 0.201 | 0.293 | 0.257 | 1.05 | 0.913 | 0.321 | 0.282 | 0.232 | 0.277 | 0.264 | 0.25 | 0.232 | 0.173 |
| HOP-62 | 0.431 | 0.489 | 0.233 | 0.188 | 0.14 | 0.361 | 0.328 | 0.134 | 0.132 | 0.0731 | 0.926 | 0.976 | 0.345 | 0.198 | 0.133 | 0.282 | 0.283 | 0.204 | 0.171 | 0.112 |
| IA-LM |  |  |  |  |  | 0.671 | 0.674 | 0.596 | 0.449 | 0.0913 | 0.407 | 0.739 | 0.462 | 0.247 | 0.0598 |  |  |  |  |  |
| LC-2-ad | 0.413 | 0.459 | 0.282 | 0.276 | 0.21 | 0.642 | 0.523 | 0.211 | 0.245 | 0.192 | 0.766 | 0.631 | 0.209 | 0.138 | 0.0966 | 0.263 | 0.228 | 0.215 | 0.177 | 0.175 |
| LCLC-97TM1 | 0.222 | 0.215 | 0.127 | 0.0905 | 0.0969 | 0.332 | 0.306 | 0.102 | 0.0999 | 0.0824 | 0.23 | 0.203 | 0.15 | 0.138 | 0.112 | 0.162 | 0.173 | 0.186 | 0.118 | 0.0781 |
| LCLC-103H | 0.44 | 0.485 | 0.385 | 0.335 | 0.4 | 0.598 | 0.709 | 0.356 | 0.357 | 0.353 | 0.849 | 1.03 | 0.313 | 0.335 | 0.333 | 0.497 | 0.511 | 0.417 | 0.399 | 0.347 |
| LK-2 | 0.684 | 0.67 | 0.403 | 0.178 | 0.148 | 0.648 | 0.56 | 0.294 | 0.183 | 0.109 | 1.08 | 0.878 | 0.364 | 0.299 | 0.268 | 0.286 | 0.236 | 0.188 | 0.141 | 0.148 |
| LOU-NH91 | 0.505 | 0.529 | 0.511 | 0.501 | 0.397 | 0.89 | 0.871 | 0.63 | 0.464 | 0.399 | 0.728 | 0.762 | 0.635 | 0.442 | 0.409 | 0.428 | 0.385 | 0.369 | 0.349 | 0.354 |
| LU99A | 0.386 | 0.418 | 0.189 | 0.185 | 0.174 | 0.253 | 0.223 | 0.189 | 0.151 | 0.133 | 0.493 | 0.455 | 0.181 | 0.163 | 0.154 | 0.205 | 0.193 | 0.185 | 0.161 | 0.145 |
| NCI-H522 | 0.877 | 1.14 | 0.975 | 0.76 | 0.519 | 0.604 | 0.591 | 0.453 | 0.452 | 0.437 |  |  |  |  |  | 0.743 | 1.22 | 0.989 | 0.637 | 0.516 |
| NCI-H596 |  |  |  |  |  | 0.779 | 0.773 | 0.627 | 0.522 | 0.254 |  | 0.478 | 0.481 | 0.351 | 0.172 | 0.504 | 0.506 | 0.473 | 0.447 | 0.38 |
| NCI-H727 | 0.565 | 0.647 | 0.534 | 0.483 | 0.474 | 0.679 | 0.624 | 0.556 | 0.518 | 0.465 | 0.663 | 0.515 | 0.434 | 0.302 | 0.244 |  |  |  |  |  |
| NCI-H1299 |  |  |  |  |  | 0.931 | 0.877 | 0.582 | 0.396 | 0.193 | 1.06 | 1 | 0.815 | 0.522 | 0.279 |  |  |  |  |  |
| NCI-H1563 |  |  |  |  |  |  |  |  |  |  | 0.967 | 0.848 | 0.9 | 0.824 | 0.719 | 0.806 | 0.807 | 0.683 | 0.543 | 0.663 |
| NCI-H1648 |  | 0.265 | 0.22 | 0.258 | 0.239 |  | 0.711 | 0.293 | 0.242 | 0.267 |  |  |  |  |  |  | 0.658 | 0.752 | 0.27 | 0.276 |
| NCI-H1650 | 0.292 | 0.328 | 0.233 | 0.116 | 0.188 | 0.813 | 0.61 | 0.16 | 0.163 | 0.204 |  |  |  |  |  | 0.402 | 0.362 | 0.256 | 0.223 | 0.189 |
| NCI-H1703 |  |  |  |  |  | 0.534 | 0.387 | 0.198 | 0.153 | 0.141 | 0.298 | 0.311 | 0.211 | 0.157 | 0.18 |  |  |  |  |  |
| NCI-H2342 | 0.539 | 0.533 | 0.509 | 0.348 | 0.415 | 0.463 | 0.475 | 0.298 | 0.33 | 0.349 |  |  |  |  |  | 0.774 | 0.75 | 0.57 | 0.542 | 0.418 |
